Experimental data published in ChEMBL document CHEMBL1201862, “PubChem BioAssay data set” (2004).
The source made the active and inactive calls.

Assays:
[1] = target: T1, Microphthalmia-associated transcription factor (Homo sapiens, UniProt O75030); test: reducers of TRPM1 reporter luminescence, concentration series – cell-based, SK-MEL-5, cherry-picked, set 3, MITF inhibitor project, dose response (AID 493073); format: functional;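 note: SK-MEL-5 melanoma cells with luciferase driven by the MITF target TRPM1 promoter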
T1 sequence (O75030 whole entry): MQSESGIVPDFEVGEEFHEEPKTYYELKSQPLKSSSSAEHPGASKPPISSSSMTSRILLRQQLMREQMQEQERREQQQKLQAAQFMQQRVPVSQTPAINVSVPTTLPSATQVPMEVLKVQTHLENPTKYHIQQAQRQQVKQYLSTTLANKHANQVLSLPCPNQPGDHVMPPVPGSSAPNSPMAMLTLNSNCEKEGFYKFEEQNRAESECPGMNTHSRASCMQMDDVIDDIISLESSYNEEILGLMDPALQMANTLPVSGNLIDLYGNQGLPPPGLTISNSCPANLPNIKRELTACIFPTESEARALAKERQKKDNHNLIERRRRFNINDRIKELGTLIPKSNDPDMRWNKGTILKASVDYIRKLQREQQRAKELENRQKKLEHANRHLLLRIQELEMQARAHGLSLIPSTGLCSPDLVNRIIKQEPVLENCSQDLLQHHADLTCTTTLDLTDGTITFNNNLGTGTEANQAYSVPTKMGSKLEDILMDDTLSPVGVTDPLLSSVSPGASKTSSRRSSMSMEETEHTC

[2] = target: T2, Rac GTPase-activating protein 1 (Homo sapiens, UniProt Q9H0H5); test: blockers of MgcRacGAP-driven Rac1 GTP hydrolysis – biochemical, ADP Hunter fluorescence, primary and confirmatory, confirmation (AID 624330); format: functional
T2 sequence (Q9H0H5 whole entry): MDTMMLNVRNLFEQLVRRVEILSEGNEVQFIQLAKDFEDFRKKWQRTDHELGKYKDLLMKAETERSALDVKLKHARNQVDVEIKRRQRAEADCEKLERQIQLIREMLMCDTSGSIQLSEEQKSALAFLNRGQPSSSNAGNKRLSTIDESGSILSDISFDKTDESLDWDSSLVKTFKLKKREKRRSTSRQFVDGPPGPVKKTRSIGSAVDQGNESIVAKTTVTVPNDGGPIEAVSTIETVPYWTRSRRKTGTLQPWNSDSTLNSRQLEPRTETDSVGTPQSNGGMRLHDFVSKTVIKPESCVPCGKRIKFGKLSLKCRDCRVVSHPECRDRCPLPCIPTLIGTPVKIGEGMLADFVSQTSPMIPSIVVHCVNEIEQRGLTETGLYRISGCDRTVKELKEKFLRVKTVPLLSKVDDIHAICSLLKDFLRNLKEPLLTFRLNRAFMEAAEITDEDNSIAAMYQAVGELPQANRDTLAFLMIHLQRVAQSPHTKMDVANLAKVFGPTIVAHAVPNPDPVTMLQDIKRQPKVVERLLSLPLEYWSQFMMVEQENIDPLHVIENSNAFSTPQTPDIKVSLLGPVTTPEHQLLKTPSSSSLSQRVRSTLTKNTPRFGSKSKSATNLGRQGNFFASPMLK

[3] = target: Heat shock protein HSP 90-alpha (Homo sapiens, UniProt P07900); format: functional, organism-based
[4] = Luminescence Cell-Based Dose Confirmation HTS to Identify Activators of 5'UTR Stem-Loop Driven Alpha-Synuclein mRNA Translation in H4 Neuroglioblastoma Cells. [Related pubchem assays: 1829 (Project Summary), 1814 (Primary HTS)]; format: functional
[5] = Luminescence Cell-Based Dose Response HTS to Identify Activators of Luciferase Translation or Activity in H4 […] Cells. [Related pubchem assays: 1829 (Project Summary), 1814 (Primary HTS)]; format: functional
[6] = test system: H4; test: Luminescence Cell-Based Dose Response HTS to Identify Activators of 5'UTR Stem-Loop Driven Prion Protein mRNA Translation in H4 Neuroglioblastoma Cells. [Related pubchem assays: 1829 (Project Summary), 1814 (Primary HTS)]; format: functional; conditions: Homo sapiens
[7] = luciferase reporter signal suppression in cells – H4 neuroglioma cells, luminescence, dose response (AID 1990); format: functional, cell-based
[8] = Luminescence Cell-Based Dose Response HTS to Identify Inhibitors of 5'UTR Stem-Loop Driven Prion Protein mRNA Translation in H4 Neuroglioblastoma Cells. [Related pubchem assays: 1827 (Project Summary), 1813 (Primary HTS)]; format: functional
[9] = alpha-synuclein stem-loop luciferase translation blockers – H4 neuroglioma cells, luminescence, confirmation (AID 1988); format: functional, cell-based
[10] = test system: HEK293; test: EBV LMP1 TES2 canonical NF-kB signalling blockers – cell-based, HEK293, luciferase, cherry-pick, dose response (AID 588343); format: functional; conditions: Homo sapiens
[11] = target: T3, Ubiquitin-conjugating enzyme E2 N (Homo sapiens, UniProt P61088); format: functional;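 note: Dose-response confirmation in a TR-FRET assay detecting UBC13-driven polyubiquitin chain formation, inhibition measured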
T3 sequence (P61088 whole entry): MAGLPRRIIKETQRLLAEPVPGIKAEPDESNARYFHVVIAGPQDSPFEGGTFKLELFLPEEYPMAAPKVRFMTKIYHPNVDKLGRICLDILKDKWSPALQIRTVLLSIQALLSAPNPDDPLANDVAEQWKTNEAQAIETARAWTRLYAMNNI

[12] = test system: Streptococcus sp. 'group A'; test: Streptococcus pyogenes SK(-)GAS viability under kanamycin – luminescence, BacTiterGlo, confirmation, counter-screen for streptokinase expression inhibitor project, dose response (AID 1900); format: functional, organism-based
[13] = target: T4, Streptokinase A (Streptococcus pyogenes serotype M1, UniProt P10520); test: viability-normalized secreted streptokinase activity reduction – plasminogen activation absorbance, OD405, dose response (AID 1914); format: functional, Streptococcus pyogenes M1 GAS;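 note: secreted streptokinase activity via plasminogen activation per viability signal from cell pellet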
T4 sequence (P10520 whole entry): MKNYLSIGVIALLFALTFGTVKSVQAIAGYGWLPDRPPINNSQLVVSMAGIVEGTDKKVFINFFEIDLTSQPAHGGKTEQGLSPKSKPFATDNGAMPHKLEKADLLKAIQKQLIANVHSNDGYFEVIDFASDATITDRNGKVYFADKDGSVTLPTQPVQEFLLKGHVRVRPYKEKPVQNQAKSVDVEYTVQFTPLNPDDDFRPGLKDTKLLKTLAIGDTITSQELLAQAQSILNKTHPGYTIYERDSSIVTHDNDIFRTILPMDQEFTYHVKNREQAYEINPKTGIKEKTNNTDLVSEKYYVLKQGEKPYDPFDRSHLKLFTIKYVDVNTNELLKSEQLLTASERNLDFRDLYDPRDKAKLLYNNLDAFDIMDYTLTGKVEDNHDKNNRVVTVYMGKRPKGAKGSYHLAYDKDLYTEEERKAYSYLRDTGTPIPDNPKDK

[14] = Trypanosoma cruzi growth suppression in host cells – NIH3T3 host cells, beta-gal luminescence, confirmation (AID 2044); format: functional, cell-based;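 note: intracellular parasites grown in NIH/3T3 mouse fibroblasts as host cells; luminescent beta-galactosidase reporter signal from transgenic T. cruzi replicating inside host cells; inhibitors lower the luminescence signal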
[15] = NIH3T3 cell viability loss – ATP luminescence, mouse fibroblasts, counter-screen, dose response (AID 2010); format: functional, cell-based;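 note: cells exposed to compound for about 90 hours before reading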
[16] = test system: Streptococcus; test: GAS UMAA2166 growth inhibition – luminescence, BacTiterGlo, counter-screen for streptokinase expression inhibitor project, dose response (AID 1915); format: functional, organism-based;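 note: potency for reduction of bacterial viability or growth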
[17] = test system: INS1; test: INS-1E survival protection against cytokine death – cell-based, luminescence, retest, dose response (AID 449756); format: functional; conditions: Rattus norvegicus;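 note: cell death triggered by IL-1 beta plus TNF-alpha plus IFN-gamma mixture; protective hits raise ATP signal compared with cytokine alone wells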
[18] = NIH-3T3 fibroblast cytotoxicity, dose response, cytotoxicity control, cell-based, fluorescence, Alamar Blue, secondary assay (AID 2327); format: functional;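 note: NIH-3T3 mouse fibroblasts cultured with fluconazole at 8 µg/mL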
[19] = fluconazole-exposed Candida albicans growth modulators – fluorescence, retest, confirmation (AID 2467); format: functional, cell-based
[20] = THP-1 cell cytotoxicity, dose response, cytotoxicity control for non-replicating M. tuberculosis project (AID 489025); format: functional
[21] = cells; format: functional
[22] = target: Cytochrome P450 3A4 (Homo sapiens, UniProt P08684);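 note: CYP3A4 tested as one member of a cytochrome P450 panel screen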
Chain of Cytochrome P450 3A4 (P08684 whole entry): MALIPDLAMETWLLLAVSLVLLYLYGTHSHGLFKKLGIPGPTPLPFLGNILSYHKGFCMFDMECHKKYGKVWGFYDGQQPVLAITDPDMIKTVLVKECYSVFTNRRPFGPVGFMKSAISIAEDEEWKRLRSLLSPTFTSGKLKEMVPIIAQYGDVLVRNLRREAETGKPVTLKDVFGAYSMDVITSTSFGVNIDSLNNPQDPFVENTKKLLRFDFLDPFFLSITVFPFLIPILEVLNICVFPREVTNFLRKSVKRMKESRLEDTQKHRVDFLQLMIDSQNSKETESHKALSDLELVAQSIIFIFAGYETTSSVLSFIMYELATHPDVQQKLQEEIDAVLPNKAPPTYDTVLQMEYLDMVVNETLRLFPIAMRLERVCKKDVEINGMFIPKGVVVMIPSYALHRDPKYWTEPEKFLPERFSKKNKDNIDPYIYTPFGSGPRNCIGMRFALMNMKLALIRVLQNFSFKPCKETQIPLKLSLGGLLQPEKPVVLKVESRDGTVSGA

Compound: O=C(O)c1ccc(C(=O)Nc2ccc(F)cc2)cc1
- AC50 [1]: 19.8 µM (active)

Compound: COc1ccc(CN2CCN(Cc3ccc(C(F)(F)F)cc3)CC2)cc1
- IC50 [2]: 99.6 µM (active)

Compound: O=C(NCCCCc1ccccc1)c1ccc(Br)cc1
- AC50 [3]: 3.65 µM (active)

Compound: COc1ccc2cc(OCC(=O)NNC(=O)Nc3ccc(C(C)=O)cc3)ccc2c1
- EC50 [4]: 12.4 µM (active)
- EC50 [5]: 33.4 µM (active)
- EC50 [6]: 20.3 µM (active)
- IC50 [2]: 239 µM (active)

Compound: COc1cc(CNCc2ccccc2C(F)(F)F)cc(OC)c1
- IC50 [2]: 113 µM (active)

Compound: O=C(Nc1ccc(N2CCOCC2)cc1)c1cnsn1
- EC50 [7]: 3.19 µM (active)
- EC50 [8]: 5.28 µM (active)
- EC50 [9]: 1.9 µM (active)
- AC50 [1]: 3.05 µM (active)

Compound: COc1cc(/C=C/C(=O)OCC(=O)N(C)Cc2ccccc2)ccc1O
- IC50 [2]: 35.2 µM (active)

Compound: COc1ccc(-c2cc(C(=O)N3CCN(c4ccccc4F)CC3)c3ccccc3n2)c(OC)c1
- AC50 [3]: 5.77 µM (active)

Compound: CC1(c2nnc(Cc3ccccc3)o2)CC(c2ccccc2[N+](=O)[O-])=NO1 (stereo not drawn)
- AC50 [3]: 1.59 µM (active)

Compound: CCN1CCN(Cc2ccc(NC(=O)c3ccc(C)c(NC(=O)c4cccc(-c5cnnc(O)c5)c4)c3)cc2C(F)(F)F)CC1
- AC50 [10]: 1.83 µM (active)

Compound: CC(C(=O)Nc1ccc(F)c(F)c1)N1CCN(C)CC1 (stereo not drawn)
- IC50 [2]: 83.1 µM (active)

Compound: Cc1c(OCC(=O)C(C)(C)C)ccc2c(-c3ccccc3)cc(=O)oc12
- AC50 [3]: 7.83 µM (active)

Compound: COc1cc2nc(=S)[nH]c(Nc3ccc(NC(C)=O)cc3)c2cc1OC
- IC50 [11]: > 20 µM (inactive)
- IC50 [2]: 306 µM (active)

Compound: Oc1c(N=NC(S)=Nc2ccccc2F)c2ccccc2n1Cc1ccc(F)cc1
- EC50 [12]: 2.84 µM (active)
- EC50 [13]: 0.607 µM (inconclusive)
- EC50 [14]: 1.06 µM (active)
- EC50 [15]: 1.62 µM (active)
- EC50 [16]: 17.8 µM (active)
- AC50 [10]: 4.02 µM (active)

Compound: COc1ccc2c(c1)[C@H]1[C@H](CO2)[C@H](c2ccccc2)[C@]2(C)C(=O)Nc3ccc(C)cc3C(=O)N12
- AC50 [3]: 6.38 µM (active)

Compound: Cc1ccc(CCNc2ccc3ccccc3c2)cn1
- IC50 [2]: 105 µM (active)

Compound: COc1ccccc1-c1sc2ccccc2c1-c1ccc(O)cc1
- AC50 [3]: 5.22 µM (active)

Compound: COc1ccc(C(=O)N/N=C/c2sc3ccccc3c2O)cc1
- EC50 [7]: 12.7 µM (active)
- EC50 [8]: 11 µM (active)
- EC50 [9]: 10.2 µM (active)
- AC50 [3]: 2.68 µM (active)
- AC50 [17]: 1.8 µM (active)

Compound: CC1(C(=O)N/N=C/c2ccc([N+](=O)[O-])o2)CC1(Br)Br (stereo not drawn)
- EC50 [18]: > 150 µM (inactive)
- EC50 [19]: 2.46 µM (active)
- AC50 [1]: 10.3 µM (active)

Compound: O=C(N/N=C/c1ccc(Br)s1)c1ccccc1[N+](=O)[O-]
- CC50 [20]: > 40 µM (active)
- IC50 [21]: 49.2 µM (active)
- AC50 [22]: 17.8 µM (inconclusive)

Compound: Cc1ccc(-c2cs/c(=N\c3cccnc3)n2CCCn2ccnc2)cc1C
- EC50 [14]: 0.118 µM (active)
- EC50 [15]: > 60 µM (not active)
- AC50 [10]: 6.59 µM (active)
